In general, IC50 refers to the midpoint of a concentration-inhibition curve.

2 molecules from ChEMBL document CHEMBL1938391, “Design and synthesis of novel photoaffinity probes for study of the target proteins of oleanolic acid” (Bioorg Med Chem Lett, 2012) can be followed below.

This experiment has as its target T1, Glycogen phosphorylase, muscle form (Oryctolagus cuniculus, UniProt P00489).
T1 sequence (P00489 whole entry): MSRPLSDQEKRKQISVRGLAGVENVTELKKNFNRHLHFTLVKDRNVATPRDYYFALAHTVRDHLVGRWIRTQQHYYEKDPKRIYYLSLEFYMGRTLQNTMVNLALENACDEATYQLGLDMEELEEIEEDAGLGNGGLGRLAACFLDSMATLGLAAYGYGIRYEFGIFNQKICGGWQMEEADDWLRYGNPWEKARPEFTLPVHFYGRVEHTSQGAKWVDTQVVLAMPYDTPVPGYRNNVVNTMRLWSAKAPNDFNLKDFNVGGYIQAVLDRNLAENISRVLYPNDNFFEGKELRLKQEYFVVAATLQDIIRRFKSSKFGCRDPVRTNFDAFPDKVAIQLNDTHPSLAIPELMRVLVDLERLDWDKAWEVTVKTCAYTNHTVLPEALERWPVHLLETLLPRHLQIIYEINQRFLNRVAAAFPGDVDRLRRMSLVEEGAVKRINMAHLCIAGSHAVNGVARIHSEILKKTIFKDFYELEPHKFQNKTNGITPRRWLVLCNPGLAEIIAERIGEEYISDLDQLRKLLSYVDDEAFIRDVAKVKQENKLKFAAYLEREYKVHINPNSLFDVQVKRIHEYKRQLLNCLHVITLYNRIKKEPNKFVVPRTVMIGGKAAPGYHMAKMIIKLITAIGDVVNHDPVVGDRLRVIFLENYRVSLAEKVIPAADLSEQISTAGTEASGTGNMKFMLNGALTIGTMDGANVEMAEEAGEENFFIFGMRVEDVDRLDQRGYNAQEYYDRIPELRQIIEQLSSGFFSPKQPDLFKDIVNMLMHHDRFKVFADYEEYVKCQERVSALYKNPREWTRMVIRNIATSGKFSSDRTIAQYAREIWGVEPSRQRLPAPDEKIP
The experiment in a line: Inhibition of rabbit muscle glycogen phosphorylase a assessed as release of phosphate from glucose-1-phosphate after 25 mins using malachite green staining.

Turning to `CC1(C)CC[C@]2(C(=O)O)CC[C@]3(C)C(=CC[C@@H]4[C@@]5(C)CC[C@H](OC(=O)COCCOCCNC(=O)c6ccc(C(=O)c7ccc(NC(=O)CCCC[C@@H]8SC[C@@H]9NC(=O)N[C@@H]98)cc7)cc6)C(C)(C)[C@@H]5CC[C@]43C)[C@@H]2C1`, the IC50 is 41.1 µM.
The same measure for `CC1(C)CC[C@]2(C(=O)O)CC[C@]3(C)C(=CC[C@@H]4[C@@]5(C)CC[C@H](OC(=O)COCCOCCNC(=O)c6ccc(C(=O)c7ccc(NC(=O)CN=[N+]=[N-])cc7)cc6)C(C)(C)[C@@H]5CC[C@]43C)[C@@H]2C1`: 115 µM.
